pEC50: −log10 of the molar value.
How the values were obtained:
Type in all cases: cell-based
[1] = molecular target: T1, human somatostatin receptor subtype 2 (Homo sapiens, UniProt P30874); assay: Functional cAMP assay for SSTR2 agonists (HTRF) in CHO-K1 cells; details: CHO-K1 cells stably expressing human SST2, 20 min; read-out: hSST2 cAMP Avg EC50
T1 construct: expressed in transfected cells
How it was run: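 CHO-K1 cells stably expressing receptor, plated 4 days before assay, treated 20 min at 37° C. with compound (typically 0-10,000 nM final) plus IBMX and 1.6 μM NKH477 to raise cAMP. HTRF read, 665/620 nm ratio; cAMP from standard curve, EC50 fitted.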

SST2 = molecular target: T2, SST2 (Homo sapiens, UniProt P30874); assay: PathHunter CHO-K1 SST2 internalization assay; details: PathHunter CHO-K1 SST2, 90 min; read-out: Internalization EC50
T2 construct: host or cells: PathHunter CHO-K1 SST2 cells
How it was run: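 PathHunter CHO-K1 SST2 cells, seeded and grown 48 h, were exposed to 11-point 1:3 dilutions of SMDC (top final 10 uM) for 90 min at 37 C, 5% CO2. Beta-Glo luminescence was read after 60 min at room temperature. Background-corrected duplicate means were fitted by four-parameter nonlinear regression to give IC50.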

[2] = test system: NCI-H524 (ATCC) human small cell lung cancer cells; details: 2 h
How it was run: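 NCI-H524 cells (5,000/well) were exposed 24 h after plating to SMDC for 2 h, 11-point two-fold series from 1 uM. After washout they grew a further 70 h. Proliferation was read by CellTiter-Glo luminescence, % inhibition taken vs untreated control, and IC50 fitted by four-parameter nonlinear regression.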

T1 sequence (P30874 whole entry): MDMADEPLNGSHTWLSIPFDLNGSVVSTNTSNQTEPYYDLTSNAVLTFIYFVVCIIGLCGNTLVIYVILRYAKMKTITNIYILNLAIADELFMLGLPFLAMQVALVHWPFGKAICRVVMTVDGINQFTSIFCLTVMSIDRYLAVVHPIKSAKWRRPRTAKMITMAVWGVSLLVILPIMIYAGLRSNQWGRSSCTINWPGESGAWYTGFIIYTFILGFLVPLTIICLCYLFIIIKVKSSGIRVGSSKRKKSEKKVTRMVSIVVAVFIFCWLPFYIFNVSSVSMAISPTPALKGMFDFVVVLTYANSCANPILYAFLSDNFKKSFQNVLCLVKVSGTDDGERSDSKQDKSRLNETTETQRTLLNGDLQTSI
T2 sequence (P30874 whole entry): as above

SMILES	pEC50 [1]	pEC50 (SST2)	pEC50 [2]
CC[C@H](C)[C@@H]([C@@H](CC(=O)N1CCC[C@H]1[C@H](OC)[C@@H](C)C(=O)N[C@H](C)[C@@H](O)c1ccccc1)OC)N(C)C(=O)[C@@H](NC(=O)[C@H](C(C)C)N(C)C(=O)OCc1ccc(NC(=O)[C@H](C)NC(=O)[C@@H](NC(=O)CCCC(=O)N(C)CC(=O)NCCNc2ncc(-c3cc(C)cc(F)c3)c(N3CCC(N)CC3)c2-c2nc3ccc(Cl)cc3[nH]2)C(C)C)c(O[C@@H]2O[C@H](C(=O)O)[C@@H](O)[C@H](O)[C@H]2O)c1)C(C)C [Compound 140]	9.48	8.74	8.27
CC[C@H](C)[C@@H]([C@@H](CC(=O)N1CCC[C@H]1[C@H](OC)[C@@H](C)C(=O)N[C@H](C)[C@@H](O)c1ccccc1)OC)N(C)C(=O)[C@@H](NC(=O)[C@H](C(C)C)N(C)C(=O)OCc1ccc(NC(=O)[C@H](CCCNC(N)=O)NC(=O)[C@@H](NC(=O)CCCC(=O)N(C)CC(=O)NCCNc2ncc(-c3cc(C)cc(F)c3)c(N3CCC(N)CC3)c2-c2nc3ccc(Cl)cc3[nH]2)C(C)C)c(O[C@@H]2O[C@H](C(=O)O)[C@@H](O)[C@H](O)[C@H]2O)c1)C(C)C [Compound 141]	9.66	8.64	7.96
CC[C@H](C)[C@@H]([C@@H](CC(=O)N1CCC[C@H]1[C@H](OC)[C@@H](C)C(=O)N[C@H](C)[C@@H](O)c1ccccc1)OC)N(C)C(=O)[C@@H](NC(=O)[C@H](C(C)C)N(C)C(=O)OCc1ccc(NC(=O)[C@H](CCCNC(N)=O)NC(=O)[C@@H](NC(=O)CCCC(=O)N(C)CC(=O)N(C)CC(=O)N(C)CC(=O)NCCNc2ncc(-c3cc(C)cc(F)c3)c(N3CCC(N)CC3)c2-c2nc3ccc(Cl)cc3[nH]2)C(C)C)c(O[C@@H]2O[C@H](C(=O)O)[C@@H](O)[C@H](O)[C@H]2O)c1)C(C)C [Compound 142]	9.60	8.36	7.04
CC[C@H](C)[C@@H]([C@@H](CC(=O)N1CCC[C@H]1[C@H](OC)[C@@H](C)C(=O)N[C@H](C)[C@@H](O)c1ccccc1)OC)N(C)C(=O)[C@@H](NC(=O)[C@H](C(C)C)N(C)C(=O)OCc1ccc(NC(=O)[C@H](CCCNC(N)=O)NC(=O)[C@@H](NC(=O)[C@H](CCC(=O)O)NC(=O)CCOCCC(=O)NCCNc2ncc(-c3cc(C)cc(F)c3)c(N3CCC(N)CC3)c2-c2nc3ccc(Cl)cc3[nH]2)C(C)C)c(O[C@@H]2O[C@H](C(=O)O)[C@@H](O)[C@H](O)[C@H]2O)c1)C(C)C [Compound 143]	9.85	8.52	7.00
CC[C@H](C)[C@@H]([C@@H](CC(=O)N1CCC[C@H]1[C@H](OC)[C@@H](C)C(=O)N[C@H](C)[C@@H](O)c1ccccc1)OC)N(C)C(=O)[C@@H](NC(=O)[C@H](C(C)C)N(C)C(=O)OCc1ccc(NC(=O)[C@H](CCCNC(N)=O)NC(=O)[C@@H](NC(=O)[C@H](CCC(=O)O)NC(=O)CCOCCOCCOCCOCCC(=O)NCCNc2ncc(-c3cc(C)cc(F)c3)c(N3CCC(N)CC3)c2-c2nc3ccc(Cl)cc3[nH]2)C(C)C)c(O[C@@H]2O[C@H](C(=O)O)[C@@H](O)[C@H](O)[C@H]2O)c1)C(C)C [Compound 144]	9.68	8.16	6.92
CC[C@H](C)[C@@H]([C@@H](CC(=O)N1CCC[C@H]1[C@H](OC)[C@@H](C)C(=O)N[C@H](C)[C@@H](O)c1ccccc1)OC)N(C)C(=O)[C@@H](NC(=O)[C@H](C(C)C)N(C)C(=O)OCc1ccc(NC(=O)[C@H](C)NC(=O)[C@@H](NC(=O)[C@H](CCC(=O)O)NC(=O)CCOCCC(=O)NCCNc2ncc(-c3cc(C)cc(F)c3)c(N3CCC(N)CC3)c2-c2nc3ccc(Cl)cc3[nH]2)C(C)C)c(O[C@@H]2O[C@H](C(=O)O)[C@@H](O)[C@H](O)[C@H]2O)c1)C(C)C [Compound 145]	9.60	8.10	6.82
CC[C@H](C)[C@@H]([C@@H](CC(=O)N1CCC[C@H]1[C@H](OC)[C@@H](C)C(=O)N[C@H](C)[C@@H](O)c1ccccc1)OC)N(C)C(=O)[C@@H](NC(=O)[C@H](C(C)C)N(C)C(=O)OCc1ccc(NC(=O)[C@H](C)NC(=O)[C@@H](NC(=O)[C@H](CCC(N)=O)NC(=O)CCOCCC(=O)NCCNc2ncc(-c3cc(C)cc(F)c3)c(N3CCC(N)CC3)c2-c2nc3ccc(Cl)cc3[nH]2)C(C)C)c(O[C@@H]2O[C@H](C(=O)O)[C@@H](O)[C@H](O)[C@H]2O)c1)C(C)C [Compound 146]	10.14	8.68	8.32
CC[C@H](C)[C@@H]([C@@H](CC(=O)N1CCC[C@H]1[C@H](OC)[C@@H](C)C(=O)N[C@H](C)[C@@H](O)c1ccccc1)OC)N(C)C(=O)[C@@H](NC(=O)[C@H](C(C)C)N(C)C(=O)OCc1ccc(O[C@@H]2O[C@H](C(=O)O)[C@@H](O)[C@H](O)[C@H]2O)c(NC(=O)[C@H](CCCNC(N)=O)NC(=O)[C@@H](NC(=O)CCOCCC(=O)NCCNc2ncc(-c3cc(C)cc(F)c3)c(N3CCC(N)CC3)c2-c2nc3ccc(Cl)cc3[nH]2)C(C)C)c1)C(C)C [Compound 147]	9.85	8.60	8.49
CC[C@H](C)[C@@H]([C@@H](CC(=O)N1CCC[C@H]1[C@H](OC)[C@@H](C)C(=O)N[C@H](C)[C@@H](O)c1ccccc1)OC)N(C)C(=O)[C@@H](NC(=O)[C@H](C(C)C)N(C)C(=O)OCc1ccc(O[C@@H]2O[C@H](C(=O)O)[C@@H](O)[C@H](O)[C@H]2O)c(NC(=O)[C@H](C)NC(=O)[C@@H](NC(=O)CCOCCC(=O)NCCNc2ncc(-c3cc(C)cc(F)c3)c(N3CCC(N)CC3)c2-c2nc3ccc(Cl)cc3[nH]2)C(C)C)c1)C(C)C [Compound 148]	10.07	8.35	8.10
CC[C@H](C)[C@@H]([C@@H](CC(=O)N1CCC[C@H]1[C@H](OC)[C@@H](C)C(=O)N[C@H](C)[C@@H](O)c1ccccc1)OC)N(C)C(=O)[C@@H](NC(=O)[C@H](C(C)C)N(C)C(=O)OCc1ccc(NC(=O)[C@H](C)NC(=O)[C@@H](NC(=O)CCOCCOCCC(=O)NCCNc2ncc(-c3cc(C)cc(F)c3)c(N3CCC(N)CC3)c2-c2nc3ccc(Cl)cc3[nH]2)C(C)C)c(O[C@@H]2O[C@H](C(=O)O)[C@@H](O)[C@H](O)[C@H]2O)c1)C(C)C [Compound 149]	10.00	8.28	8.30
CC[C@H](C)[C@@H]([C@@H](CC(=O)N1CCC[C@H]1[C@H](OC)[C@@H](C)C(=O)N[C@H](C)[C@@H](O)c1ccccc1)OC)N(C)C(=O)[C@@H](NC(=O)[C@H](C(C)C)N(C)C(=O)OCc1ccc(NC(=O)[C@H](C)NC(=O)[C@@H](NC(=O)CCOCCOCCOCCOCCC(=O)NCCNc2ncc(-c3cc(C)cc(F)c3)c(N3CCC(N)CC3)c2-c2nc3ccc(Cl)cc3[nH]2)C(C)C)c(O[C@@H]2O[C@H](C(=O)O)[C@@H](O)[C@H](O)[C@H]2O)c1)C(C)C [Compound 150]	9.74	8.25	8.03
CC[C@H](C)[C@@H]([C@@H](CC(=O)N1CCC[C@H]1[C@H](OC)[C@@H](C)C(=O)N[C@H](C)[C@@H](O)c1ccccc1)OC)N(C)C(=O)[C@@H](NC(=O)[C@H](C(C)C)N(C)C(=O)OCc1ccc(NC(=O)[C@H](CCCNC(N)=O)NC(=O)[C@@H](NC(=O)[C@H](CCC(N)=O)NC(=O)CCOCCC(=O)NCCNc2ncc(-c3cc(C)cc(F)c3)c(N3CCC(N)CC3)c2-c2nc3ccc(Cl)cc3[nH]2)C(C)C)c(O[C@@H]2O[C@H](C(=O)O)[C@@H](O)[C@H](O)[C@H]2O)c1)C(C)C [Compound 151]	9.55	8.66	8.05
CC[C@H](C)[C@@H]([C@@H](CC(=O)N1CCC[C@H]1[C@H](OC)[C@@H](C)C(=O)N[C@H](C)[C@@H](O)c1ccccc1)OC)N(C)C(=O)[C@@H](NC(=O)[C@H](C(C)C)N(C)C(=O)OCc1ccc(NC(=O)[C@H](C)NC(=O)[C@@H](NC(=O)[C@H](CCC(=O)O)NC(=O)CCOCCOCCOCCOCCC(=O)NCCNc2ncc(-c3cc(C)cc(F)c3)c(N3CCC(N)CC3)c2-c2nc3ccc(Cl)cc3[nH]2)C(C)C)c(O[C@@H]2O[C@H](C(=O)O)[C@@H](O)[C@H](O)[C@H]2O)c1)C(C)C [Compound 152]	9.70	8.24	7.04
CC[C@H](C)[C@@H]([C@@H](CC(=O)N1CCC[C@H]1[C@H](OC)[C@@H](C)C(=O)N[C@H](C)[C@@H](O)c1ccccc1)OC)N(C)C(=O)[C@@H](NC(=O)[C@H](C(C)C)N(C)C(=O)OCc1ccc(NC(=O)[C@H](C)NC(=O)[C@@H](NC(=O)CCOCCC(=O)N(C)CCNc2ncc(-c3cc(C)cc(F)c3)c(N3CCC(N)CC3)c2-c2nc3ccc(Cl)cc3[nH]2)C(C)C)c(O[C@@H]2O[C@H](C(=O)O)[C@@H](O)[C@H](O)[C@H]2O)c1)C(C)C [Compound 153]	9.29	7.85	7.01
CC[C@H](C)[C@@H]([C@@H](CC(=O)N1CCC[C@H]1[C@H](OC)[C@@H](C)C(=O)N[C@H](C)[C@@H](O)c1ccccc1)OC)N(C)C(=O)[C@H](C)NC(=O)[C@H](C(C)C)N(C)C(=O)OCc1ccc(NC(=O)[C@@H](NC(=O)[C@@H](NC(=O)CCN(C)CCC(=O)NCCNc2ncc(-c3cc(C)cc(F)c3)c(N3CCC(N)CC3)c2-c2nc3ccc(Cl)cc3[nH]2)C(C)C)C(C)C)c(O[C@@H]2O[C@H](C(=O)O)[C@@H](O)[C@H](O)[C@H]2O)c1 [Compound 154]	9.80	7.60	7.54
